Experimental data from PubChem BioAssay AID330 (DTP/NCI, 2004).
“And” between values parts separate entries of the source, which are not always exact repeats. Equal values may be shown once. Toxic doses and inconclusive results are not listed.

Tested on: P388 leukemia ip, CD2F1 mice, survival T/C
Test: NCI In Vivo Anticancer Drug Screen. Data for tumor model P388 Leukemia (intraperitoneal) in CD2F1 (CDF1) mice
Details: endpoint: median survival time, higher = longer survival
Summary of the method: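 Mice carrying the transplanted tumor received test compound or vehicle. Survival was recorded in each group, and the value is the treated-group measurement divided by that of the vehicle-treated control group.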

[1] = dose: 50.0 mg/kg/injection, schedule: Q01DX005 (ip), vehicle: saline
[2] = dose: 100.0 mg/kg/injection, schedule: Q01DX005 (ip), vehicle: saline
[3] = dose: 200.0 mg/kg/injection, schedule: Q01DX005 (ip), vehicle: saline
[4] = dose: 25.0 mg/kg/injection, schedule: Q01DX009 (ip), vehicle: saline with Tween-80
[5] = dose: 50.0 mg/kg/injection, schedule: Q01DX009 (ip), vehicle: saline with Tween-80
[6] = dose: 100.0 mg/kg/injection, schedule: Q01DX009 (ip), vehicle: saline with Tween-80
[7] = dose: 200.0 mg/kg/injection, schedule: Q01DX009 (ip), vehicle: saline with Tween-80
[8] = dose: 50.0 mg/kg/injection, schedule: Q01DX005 (ip), vehicle: saline with Tween-80
[9] = dose: 100.0 mg/kg/injection, schedule: Q01DX005 (ip), vehicle: saline with Tween-80
[10] = dose: 50.0 mg/kg/injection, schedule: Q01DX005 (ip), vehicle: Klucel (hydroxypropylcellulose) (HPC)
[11] = dose: 100.0 mg/kg/injection, schedule: Q01DX005 (ip), vehicle: Klucel (hydroxypropylcellulose) (HPC)
[12] = dose: 200.0 mg/kg/injection, schedule: Q01DX005 (ip), vehicle: Klucel (hydroxypropylcellulose) (HPC)

For `CC1OCOC(CO)C(O)C1O` (centres undefined), the T/C [1] was 101 % of control, the T/C [2] was 105 % of control and the T/C [3] was 105 % of control.

For `C=C1C(=O)C[C@@H]2CC(C)(C)C[C@]12CC(=O)O`, the T/C (dose: 2.5 mg/kg/injection, schedule: Q01DX005 (ip), vehicle: water) was 90 % of control, the T/C (dose: 5.0 mg/kg/injection, schedule: Q01DX005 (ip), vehicle: water) was 109 % of control and the T/C (dose: 10.0 mg/kg/injection, schedule: Q01DX005 (ip), vehicle: water) was 97 % of control. The T/C (dose: 20.0 mg/kg/injection, schedule: Q01DX005 (ip), vehicle: water) was 98 % of control and the T/C (dose: 40.0 mg/kg/injection, schedule: Q01DX005 (ip), vehicle: water) was 101 % of control.

In the case of `CC(=O)NC(=O)NC(C)=O`, the T/C (dose: 100.0 mg/kg/injection, schedule: Q01DX001 (ip), vehicle: methylcellulose (MC)) is reported as 100 % of control, the T/C (dose: 200.0 mg/kg/injection, schedule: Q01DX001 (ip), vehicle: methylcellulose (MC)) is reported as 108 % of control and the T/C (dose: 400.0 mg/kg/injection, schedule: Q01DX001 (ip), vehicle: methylcellulose (MC)) is reported as 100 % of control.

In the case of `COC1/C=C/OC2(C)Oc3c(C)c(O)c4c(O)c(c(/C=N/N5C(C)CN(Cc6ccc([N+](=O)[O-])cc6)CC5C)c(O)c4c3C2=O)NC(=O)/C(C)=C\C=C\C(C)C(O)C(C)C(O)C(C)C(OC(C)=O)C1C` (centres undefined), the T/C [4] is reported as 100 % of control, the T/C (dose: 25.0 mg/kg/injection, schedule: Q01DX009 (ip), vehicle: suspension in saline) is reported as 103 % of control and the T/C [5] is reported as 104 % of control and 119 % of control. The T/C (dose: 50.0 mg/kg/injection, schedule: Q01DX009 (ip), vehicle: suspension in saline) was 103 % of control, the T/C [6] was 119 % of control and the T/C (dose: 100.0 mg/kg/injection, schedule: Q01DX009 (ip), vehicle: suspension in saline) was 108 % of control. The T/C (dose: 200.0 mg/kg/injection, schedule: Q01DX009 (ip), vehicle: suspension in saline) was 119 % of control.

In the case of `O=C1C2C3CCC(O3)C2C(=O)N1CO` (centres undefined), the T/C (dose: 60.0 mg/kg/injection, schedule: Q01DX005 (ip), vehicle: saline) is reported as 112 % of control and the T/C (dose: 120.0 mg/kg/injection, schedule: Q01DX005 (ip), vehicle: saline) is reported as 124 % of control.

For `Cn1cc/c(=N\N=c2/ccn(C)c3ccccc23)c2ccccc21`, the T/C (dose: 25.0 mg/kg/injection, schedule: Q04DX002 (ip), vehicle: saline) was 101 % of control, the T/C (dose: 50.0 mg/kg/injection, schedule: Q04DX002 (ip), vehicle: saline) was 104 % of control and the T/C (dose: 100.0 mg/kg/injection, schedule: Q04DX002 (ip), vehicle: saline) was 99 % of control and 103 % of control.

With `CNS(=O)(=O)c1c([O-])on[n+]1-c1ccccc1` the T/C (dose: 60.0 mg/kg/injection, schedule: Q01DX005 (ip), vehicle: Klucel (hydroxypropylcellulose) (HPC)) was 99 % of control, the T/C (dose: 120.0 mg/kg/injection, schedule: Q01DX005 (ip), vehicle: Klucel (hydroxypropylcellulose) (HPC)) was 104 % of control and the T/C (dose: 240.0 mg/kg/injection, schedule: Q01DX005 (ip), vehicle: Klucel (hydroxypropylcellulose) (HPC)) was 86 % of control.

With `COC(=O)C1=C(C)NC(C)=C(C(=O)OCCCN2CCC(c3ccccc3)(c3ccccc3)CC2)C1c1cccc([N+](=O)[O-])c1` (centres undefined) the T/C (dose: 15.0 mg/kg/injection, schedule: Q01DX005 (ip), vehicle: saline with Tween-80) was 100 % of control, the T/C (dose: 30.0 mg/kg/injection, schedule: Q01DX005 (ip), vehicle: saline with Tween-80) was 103 % of control and the T/C (dose: 60.0 mg/kg/injection, schedule: Q01DX005 (ip), vehicle: saline with Tween-80) was 99 % of control.

For `O=C(c1ccc(Cl)cc1)c1no[n+]([O-])c1C(=O)c1ccc(Cl)cc1`, the T/C [4] was 115 % of control, the T/C [5] was 111 % of control and the T/C [7] was 118 % of control.

In the case of `N#C/C(=C1/OC(=N)C(c2ccc(Cl)cc2)C1=O)c1ccc(Cl)cc1` (centres undefined), the T/C [8] is reported as 110 % of control and the T/C [9] is reported as 99 % of control.

In the case of `O=c1[nH]c(=O)n(C2OC(CO)C(O)C2O)cc1F` (centres undefined), the T/C (dose: 0.62 mg/kg/injection, schedule: Q01DX009 (ip), vehicle: saline) is reported as 179 % of control, the T/C (dose: 0.79 mg/kg/injection, schedule: Q01DX009 (ip), vehicle: saline) is reported as 157 % of control and the T/C (dose: 1.0 mg/kg/injection, schedule: Q01DX005 (ip), vehicle: saline) is reported as 158 % of control. The T/C (dose: 1.57 mg/kg/injection, schedule: Q01DX009 (ip), vehicle: saline) was 169 % of control, the T/C (dose: 2.0 mg/kg/injection, schedule: Q01DX005 (ip), vehicle: saline) was 172 % of control and the T/C (dose: 2.5 mg/kg/injection, schedule: Q01DX009 (ip), vehicle: saline) was 176 % of control and 205 % of control. For the same compound, the T/C (dose: 3.89 mg/kg/injection, schedule: Q04DX003 (ip), vehicle: saline) was 157 % of control, the T/C (dose: 4.0 mg/kg/injection, schedule: Q01DX005 (ip), vehicle: saline) was 185 % of control and the T/C (dose: 5.0 mg/kg/injection, schedule: Q01DX009 (ip), vehicle: saline) was 189 % of control. The T/C (dose: 6.48 mg/kg/injection, schedule: Q04DX002 (ip), vehicle: saline) was 150 % of control, the T/C (dose: 6.48 mg/kg/injection, schedule: Q04DX003 (ip), vehicle: saline) was 159 % of control and the T/C (dose: 10.8 mg/kg/injection, schedule: Q04DX002 (ip), vehicle: saline) was 160 % of control. The T/C (dose: 10.8 mg/kg/injection, schedule: Q04DX003 (ip), vehicle: saline) was 175 % of control and the T/C (dose: 18.0 mg/kg/injection, schedule: Q04DX003 (ip), vehicle: saline) was 186 % of control.

For `CCOC(=O)CN1CCCC(C(=O)CC2(O)C3(Cl)C4(Cl)C5(Cl)C(Cl)(Cl)C6(Cl)C4(Cl)C2(Cl)C6(Cl)C53Cl)C1` (centres undefined), the T/C (dose: 12.5 mg/kg/injection, schedule: Q01DX009 (ip), vehicle: saline with Tween-80) was 97 % of control, the T/C [4] was 98 % of control and the T/C [5] was 101 % of control. For the same compound, the T/C [6] was 100 % of control.

In the case of `CN(NC(=O)C(=O)NCc1ccco1)C(=O)NC1CCCCC1`, the T/C [10] is reported as 103 % of control, the T/C [11] is reported as 100 % of control and the T/C [12] is reported as 96 % of control.

For `C=C(C)C(=O)NC(C)C(=O)O` (centres undefined), the T/C (dose: 50.0 mg/kg/injection, schedule: Q01DX009 (ip), vehicle: saline) was 106 % of control, the T/C (dose: 100.0 mg/kg/injection, schedule: Q01DX009 (ip), vehicle: saline) was 100 % of control and the T/C (dose: 200.0 mg/kg/injection, schedule: Q01DX009 (ip), vehicle: saline) was 100 % of control.

`CN1CCc2sccc2C(c2ccccc2)O1` (centres undefined) was tested, and the T/C [10] was 112 % of control, the T/C [11] was 104 % of control and the T/C [12] was 113 % of control.

With `COC(=O)/C=C/CCO` the T/C [5] was 111 % of control, the T/C [6] was 95 % of control and the T/C [7] was 108 % of control.

In the case of `CCN(CC)CCCN1CC2CC=CCC2C1` (centres undefined), the T/C [1] is reported as 98 % of control, the T/C [2] is reported as 100 % of control and the T/C [3] is reported as 105 % of control.

`O=C1c2cc(Cl)ccc2OC2CCON12` (centres undefined) was tested, and the T/C (dose: 50.0 mg/kg/injection, schedule: Q01DX009 (ip), vehicle: Klucel (hydroxypropylcellulose) (HPC)) was 108 % of control, the T/C (dose: 100.0 mg/kg/injection, schedule: Q01DX009 (ip), vehicle: Klucel (hydroxypropylcellulose) (HPC)) was 110 % of control and the T/C (dose: 200.0 mg/kg/injection, schedule: Q01DX009 (ip), vehicle: Klucel (hydroxypropylcellulose) (HPC)) was 116 % of control.

`CC(C)(C)c1cc(C(C)(C)O)c2c(c1)C(C)(C)OS2` was tested, and the T/C (dose: 50.0 mg/kg/injection, schedule: Q04DX003 (ip), vehicle: saline with Tween-80) was 99 % of control, the T/C (dose: 100.0 mg/kg/injection, schedule: Q04DX003 (ip), vehicle: saline with Tween-80) was 106 % of control and the T/C (dose: 200.0 mg/kg/injection, schedule: Q04DX003 (ip), vehicle: saline with Tween-80) was 100 % of control.

For `OC(CNc1ccc(CSc2ccccc2)cc1)c1ccccc1` (centres undefined), the T/C (dose: 50.0 mg/kg/injection, schedule: Q01DX009 (ip), vehicle: saline + Tween-80 + alcohol) was 101 % of control and 104 % of control, the T/C (dose: 100.0 mg/kg/injection, schedule: Q01DX009 (ip), vehicle: saline + Tween-80 + alcohol) was 99 % of control and the T/C (dose: 200.0 mg/kg/injection, schedule: Q01DX009 (ip), vehicle: saline + Tween-80 + alcohol) was 99 % of control and 102 % of control. The T/C (dose: 400.0 mg/kg/injection, schedule: Q01DX009 (ip), vehicle: saline + Tween-80 + alcohol) was 104 % of control and 90 % of control.

With `[Cu+2].[O-]/C(=N\N=C/c1ccco1)c1ccccc1O.[O-]/C(=N\N=C/c1ccco1)c1ccccc1O.[OH3+].[OH3+]` the T/C (dose: 400.0 mg/kg/injection, schedule: Q04DX002 (ip), vehicle: saline with Tween-80) was 93 % of control.

For `CCC(C)C(NC(=O)C(CCCCN)N(C(=O)OCc1ccccc1)C(=O)OCc1ccccc1)C(=O)O` (centres undefined), the T/C [8] was 99 % of control, the T/C [9] was 90 % of control and the T/C (dose: 200.0 mg/kg/injection, schedule: Q01DX005 (ip), vehicle: saline with Tween-80) was 94 % of control.

With `CCCCn1nnc2cc(-c3c(N)nc(N)nc3CC)ccc21` the T/C [10] was 87 % of control, the T/C [11] was 89 % of control and the T/C [12] was 89 % of control.
